The values below come from paper PMC3591093, “De novo modeling of the F420-reducing [NiFe]-hydrogenase from a methanogenic archaeon by cryo-electron microscopy” (eLife, 2013).

The target in experiment [1] is T1, Frh complex (FrhABG), F420-reducing [NiFe]-hydrogenase (Methanothermobacter marburgensis, UniProt D9PYF6).
T1 construct: gene frhB; FrhA C-terminus after His386 removed in maturation; FrhG most probably starts at Val39 of the 275-residue annotation; FrhA 45, FrhG 26, FrhB 31 kDa; with Coenzyme F420 hydrogenase subunit alpha; Coenzyme F420 hydrogenase subunit gamma
T1 sequence (D9PYF6 1-281): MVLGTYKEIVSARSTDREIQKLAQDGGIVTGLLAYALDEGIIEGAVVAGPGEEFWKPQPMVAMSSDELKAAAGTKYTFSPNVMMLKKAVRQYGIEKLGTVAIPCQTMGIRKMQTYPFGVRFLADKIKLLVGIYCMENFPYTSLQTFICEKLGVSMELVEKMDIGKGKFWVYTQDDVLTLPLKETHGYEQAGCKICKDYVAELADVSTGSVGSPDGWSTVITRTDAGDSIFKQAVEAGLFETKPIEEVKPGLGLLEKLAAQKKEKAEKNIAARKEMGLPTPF
T1 sequence (D9PYF9 1-386 partner): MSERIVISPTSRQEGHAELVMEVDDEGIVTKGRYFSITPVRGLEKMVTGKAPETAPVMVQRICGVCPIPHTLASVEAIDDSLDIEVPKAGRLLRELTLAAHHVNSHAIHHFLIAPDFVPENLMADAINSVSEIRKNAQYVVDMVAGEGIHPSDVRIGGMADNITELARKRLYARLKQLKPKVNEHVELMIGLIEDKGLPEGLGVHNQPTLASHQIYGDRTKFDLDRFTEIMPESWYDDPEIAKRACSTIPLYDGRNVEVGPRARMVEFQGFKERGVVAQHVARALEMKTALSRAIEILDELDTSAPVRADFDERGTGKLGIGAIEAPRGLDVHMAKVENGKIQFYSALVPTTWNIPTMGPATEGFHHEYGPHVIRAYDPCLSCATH
T1 sequence (D9PYF7 40-275 partner): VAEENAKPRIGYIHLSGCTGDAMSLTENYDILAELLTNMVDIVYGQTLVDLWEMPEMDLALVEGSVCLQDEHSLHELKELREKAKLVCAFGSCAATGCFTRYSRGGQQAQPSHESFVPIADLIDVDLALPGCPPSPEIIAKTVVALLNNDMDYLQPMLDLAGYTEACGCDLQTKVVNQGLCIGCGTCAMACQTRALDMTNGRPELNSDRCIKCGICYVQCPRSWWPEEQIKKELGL
Kind of experiment: cryo-EM structure (map with versus without F420). It counts as binding. The following applies: 0.5, 1.0 or 10 mM F420, oxygen-free; site in FrhB next to FAD isoalloxazine; only the isoalloxazine-like ring modelled, weak density.

Experiment [2] deals with T1, Frh complex (FrhABG), F420-reducing [NiFe]-hydrogenase. The experiment in a line: cryo-EM structure. The format is binding. The following applies: 25 uM FAD in purification buffers; site in FrhB near the [4Fe-4S] cluster; ribose and ribitol density missing.

Turning to `C[C@H](OP(=O)(O)OC[C@@H](O)[C@@H](O)[C@@H](O)Cn1c2nc(=O)[nH]c(=O)c-2cc2ccc(O)cc21)C(=O)N[C@@H](CCC(=O)N[C@@H](CCC(=O)O)C(=O)O)C(=O)O` [F420], the “cryo-EM structure (map with versus without F420)” value in experiment [1] was “We conclude that it represents the isoalloxazine ring of the F420 substrate”.

With `Cc1cc2nc3c(=O)[nH]c(=O)nc-3n(C[C@H](O)[C@H](O)[C@H](O)COP(=O)(O)OP(=O)(O)OC[C@H]3O[C@@H](n4cnc5c(N)ncnc54)[C@H](O)[C@@H]3O)c2cc1C` [FAD], in experiment [2], the cryo-EM structure result is recorded as “could be interpreted as the isoalloxazine ring of the FAD cofactor”.
